Results from US20260308158A1, “TARGETING RNAS ASSOCIATED WITH TAUOPATHIES WITH SMALL MOLECULES” (University of Florida Research Foundation, Incorporated, priority 2023, published 2026).

Legend:
[1] = system: endogenous MAPT pre-mRNA in LAN5 cells; test: Chem-CLIP / C-Chem-CLIP in LAN5 cells; format: cell-based; conditions: pre-incubation
Description: Measuring Cellular Occupancy by Chem-CLIP and C-Chem-CLIP. LAN5 cells were grown to ~80% confluency in 100 mm diameter dishes. HeLa cells were transfected as described in the Luciferase Reporter Assay to Study Exon 10 Alternative Splicing except they were re-plated in 100 mm diameter dishes and grown to ~80% confluency (~1 day). The cells were then treated with 1.5 μM of 3 or 4 for 12 h. For C-Chem-CLIP, dilutions of competing compounds 1 or 2 were pre-incubated with cells for 12 h prior to adding 3. After addition of 3, the cells were incubated for an additional 12 h. After the treatment period, whether for Chem-CLIP or C-Chem-CLIP studies, the cells were washed with 10 mL of 1×DPBS. Ice-cold 1×DPBS (10 mL) was then added to the plate followed by irradiation with 365 nm light in a UV Stratalinker 2400 (Stratagene). Cells were scraped with a cell scraper, transferred to a 15 mL conical vial, and collected by centrifugation. Total RNA was extracted using TRIzol LS Reagent (Invitrogen) per the manufacturer's protocol. […]
RT-qPCR was performed on RNA samples before and after pull-down as described in Real-Time Quantitative PCR to enable calculation of fold enrichment in the pulled down samples. Relative fold enrichment of tau pre-mRNA was measured using Equation 3: […]

DDPAC I17T mutant RNA = test: Fluorescent binding affinity, DDPAC I17T mutant RNA
Description: Fluorescent Binding Affinity Measurements. Binding assays were completed as previously described.^30 Briefly, the RNA of interest was folded in 1× Assay Buffer-1 (AB1: 8 mM Na2HPO4, pH 7.0, 185 mM NaCl, and 1 mM EDTA) by heating at 95° C. for 30 s followed by slowly cooling to room temperature. Bovine serum albumin (BSA) was then added to a final concentration of 40 μg/mL to afford 1× Assay Buffer-2 (AB2: 8 mM Na2HPO4, pH 7.0, 185 mM NaCl, 1 mM EDTA, and 40 μg/mL BSA). The RNA solution was serial diluted with 1×AB2. Then, compound of interest was added to the RNA solutions to a final concentration of 0.5 μM. […] Fluorescence intensity was measured using a Tecan Plate Reader (Gain: 100, Integration time: 40 μs). […] The change in fluorescence of the small molecule was calculated by its comparison to samples lacking RNA. Binding affinity was calculated using Equation 1, as previously described:^30
where I and I0 are the measured fluorescence intensity of the compound with or without RNA, respectively, Δε is the difference between the fluorescence intensity with the infinite concentration of RNA and the fluorescence intensity without RNA, [SM]0 and [RNA]0 are the concentrations of the small molecule (SM) and RNA, respectively, and Kd is the dissociation constant.

DDPAC I17T model RNA = test: Optical melting, DDPAC I17T RNA; format: binding; conditions: 2 at 1.5 μM
Description: Optical Melting Experiments. The thermal stabilities of WT, DDPAC, and DDPAC+I17T model RNAs were analyzed by optical melting in the presence or absence of compound 1 or 2 as previously described.^18 The RNAs (2 μM) were heated to 95° C. in 1×PBS buffer and slowly cooled to room temperature. The samples were then cooled to 15° C. in the presence of compound 1 (10 μM; 0.1% (v/v) DMSO), 2 (1.5 μM; 0.1% (v/v) DMSO) or vehicle (0.1% (v/v) DMSO) and then heated to 85° C. at a rate of 1° C. per min. Absorbance as a function of temperature was measured at 260 nm using a Beckman Coulter DU800 UV/vis spectrophotometer. Melting curves were fitted with MeltWin 3.5.^31

WT mice = test: Nesting activity, WT mice; format: in vivo, mouse
Description: Nesting Activity. From Day 1 to Day 20, mice were individually housed and nesting material from the previous day was removed. An intact 3.0 g nestlet was placed within each cage. Around 15 h later, the resulting nest was photographed for qualitative scoring, and the untorn nestlet was weighed if present. All nest images and weights were analyzed by a blinded individual and based on published criteria.^43 In brief, nesting is scored on a rating scale of 1-5 where if the nestlet is over 90% intact, it is given a nestlet score is 1 (Poor; FIG. 4C). When the nestlet is partially torn but >50% remains, the nestlet score is 2; a score of 3 is assigned when 50-90% of the nestlet is torn but spread around the cage and no identifiable nest site is found (Medium; FIG. 4C). When more than 90% of the nestlet is torn and the nest is identifiable but flat, the nestlet score is 4. When a near perfect nest is built and the wall is higher than the mouse's body, it is assigned a nestlet score of 5 (Good; FIG. 4C).

SMILES: COc1cc(N)ncc1CCCN(C)CCCn1cnc2c3ccccc3n(C)c2c1=O [Compound 2, 3-(3-((3-(6-amino-4-methoxypyridin-3-yl)propyl)(methyl)amino)propyl)-5-methyl-3,5-dihydro-4H-pyrimido[5,4-b]indol-4-one]
- competition of cross-linking of 3 [1]: competed by 1 or 2 in dose dependent fashion
- Kd (estimated; no saturable binding) (DDPAC I17T mutant RNA): > 50 µM
- effect on Tm (DDPAC I17T model RNA): no effect on the Tm
- nesting behavior vs no treatment (WT mice; 20 days, 100 mg/kg p.o. q.o.d.): no significant difference in nesting behavior
- nest score at Day 20 (WT mice; scale 1-5, 100 mg/kg p.o. q.o.d.): 4.1±0.2
- average nest score over time (WT mice; scale 1-5, over 20 days, 100 mg/kg p.o. q.o.d.): 3.7-4.3
